# Laboratory results reported in patent US20170184612A1, “USE OF LEUKOCYTES AND NOVEL BIOMARKERS IN THE DIAGNOSIS, CONFIRMATION, AND TREATMENT OF A NEUROLOGICAL DISORDER” (The Trustees of Columbia University in the City of New York, priority 2014, published 2017).
# Key:
# [1] = tested on: peripheral blood mononuclear cells (PBMC), T cells; assay: ELISpot assay, IL-5 release (SFC) after stimulation with a-synuclein epitope pools; format: cell-based, human
# Summary of the method: (§1)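 Ficoll-isolated PBMC from PD patients and age-matched controls were stimulated 22 h at 37 °C with pools of candidate α-syn class I/II and phospho-S129 epitopes, then deconvoluted to single epitopes in responders. IFNγ and IL-5 spot-forming cells were counted colorimetrically, with ≥20 SFC per million cells counted as a response.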
# [2] = tested on: peripheral blood mononuclear cells (PBMC), T cells; assay: ELISpot assay, gamma-interferon release (SFC) after stimulation with a-synuclein epitope pools; format: cell-based, human; settings: for Pool +: IFNg, Pool Stimulated, number of donors with a positive response, Donors tested 1
# Summary of the method: as §1
# [3] = Patients Summary, PD patients, of donors tested (peptide)
# [4] = Patients Summary, PD patients, single peptide
# [5] = Patients Summary, Phospho pool peptides
# [6] = Patients Summary, Phospho pool peptides, 10 donors tested
# [7] = number of donors positive to the single peptide, second 'Pool Stimulated' section (from r296), 12 donors tested
# [8] = peptide + / donors tested (peptide), second 'Pool Stimulated' section (from r296), 12 donors tested
# [9] = peptides of pool 'Poshpho', 8 donors tested
# [10] = peptides of pool 'Poshpho', 8 donors tested, number of donors positive
# [11] = single peptide, second 'Pool Stimulated' section (from r296), 12 donors tested
# [12] = pool 'Phospho' (phosphorylated peptides)
Substance,"IL-g Peptide + (donors positive to the peptide) [1, 3]","IL-g Response Frequency [1, 4]","IL-g Total SFC [1, 4]","IL-g Peptide + [1, 7]","IL-g Response Frequency [1, 8]","IL-g Avg SFC [1, 11]","IL-g Total SFC [1, 11]",Pool + [2],"IFNg Peptide + (donors positive to the peptide) [2, 3]","IFNg Response Frequency [2, 4]","IFNg Total SFC [2, 4]","IFNg Peptide + [2, 7]","IFNg Response Frequency [2, 8]","IFNg Total SFC [2, 11]",further results
3521.0056 (YEMPSEEGYQ; listed as Homo sapiens),0,0%,0 SFC,1,50%,89 SFC,89 SFC,0,0,0%,0 SFC,0,0%,,"IL-g Response Frequency [1, 5]: 0%; IL-g Total SFC [1, 5]: 0 SFC; IL-g Peptide + (donors positive to the peptide) [1, 6]: 0; IL-g Avg SFC [1, 9]: 167 SFC; IL-g Response Frequency [1, 9]: 13%; IL-g Total SFC [1, 9]: 167 SFC; IL-g Peptide + [1, 10]: 1; Pool + [2, 12]: 0; IFNg Response Frequency [2, 5]: 0%; IFNg Total SFC [2, 5]: 0 SFC; IFNg Peptide + (donors positive to the peptide) [2, 6]: 0; IFNg Avg SFC [2, 9]: 100 SFC; IFNg Response Frequency [2, 9]: 13%; IFNg Total SFC [2, 9]: 100 SFC; IFNg Peptide + [2, 10]: 1"
3521.0057 (NEEGAPQEGI; listed as Homo sapiens),0,0%,0 SFC,0,0%,,0 SFC,0,0,0%,0 SFC,1,50%,26.7 SFC,"IFNg Avg SFC [2, 11]: 26.7 SFC"
3521.0058 (SEEGYQDYEP; listed as Homo sapiens),0,0%,0 SFC,1,50%,58 SFC,58 SFC,0,0,0%,0 SFC,0,0%,,"IL-g Avg SFC [1, 5]: 73 SFC; IL-g Response Frequency [1, 5]: 10%; IL-g Total SFC [1, 5]: 73 SFC; IL-g Peptide + (donors positive to the peptide) [1, 6]: 1; IL-g Response Frequency [1, 9]: 0%; IL-g Total SFC [1, 9]: 0 SFC; IL-g Peptide + [1, 10]: 0; Pool + [2, 12]: 1; IFNg Avg SFC [2, 5]: 107 SFC; IFNg Response Frequency [2, 5]: 20%; IFNg Total SFC [2, 5]: 213 SFC; IFNg Peptide + (donors positive to the peptide) [2, 6]: 1; IFNg Avg SFC [2, 9]: 26.7 SFC; IFNg Response Frequency [2, 9]: 13%; IFNg Total SFC [2, 9]: 26.7 SFC; IFNg Peptide + [2, 10]: 1"
3521.0059 (AEAAGKTKEG; listed as Homo sapiens),1,13%,71 SFC,0,0%,,0 SFC,1,0,0%,0 SFC,1,50%,120 SFC,"IL-g Avg SFC [1, 4]: 71 SFC; IFNg Avg SFC [2, 11]: 120 SFC"
3521.0061 (AATGFVKKDQ; listed as Homo sapiens),0,0%,0 SFC,1,50%,195 SFC,195 SFC,0,0,0%,0 SFC,1,50%,84 SFC,"IFNg Avg SFC [2, 11]: 84 SFC"
3521.0062 (KTKKGVVHG; listed as Homo sapiens),1,17%,40 SFC,,,,,0,1,17%,113 SFC,,,,"IL-g Avg SFC [1, 4]: 40 SFC; IFNg Avg SFC [2, 4]: 113 SFC"
3521.0063 (GVVHGVTTV; listed as Homo sapiens),0,0%,0 SFC,0,0%,,0 SFC,1,1,50%,143 SFC,0,0%,0 SFC,"IFNg Avg SFC [2, 4]: 143 SFC"
3521.0064 (GVVHGVATV; listed as Homo sapiens),0,0%,0 SFC,1,50%,75 SFC,75 SFC,1,0,0%,0 SFC,0,0%,0 SFC,
3521.0065 (FVKKDQLGK; listed as Homo sapiens),0,0%,0 SFC,0,0%,,0 SFC,0,0,0%,0 SFC,0,0%,0 SFC,
3521.0067 (KTKEGVVHG; listed as Homo sapiens),0,0%,0 SFC,,,,,0,0,0%,0 SFC,,,,
3521.0068 (GVAEAPGKTK; listed as Homo sapiens),0,0%,0 SFC,0,0%,,0 SFC,0,0,0%,0 SFC,0,0%,0 SFC,
3521.0069 (GVAEAAGKTK; listed as Homo sapiens),0,0%,0 SFC,0,0%,,0 SFC,0,1,13%,53 SFC,0,0%,0 SFC,"IFNg Avg SFC [2, 4]: 53 SFC"
3521.0071 (YVGSKTKEGVVHGVT; listed as Homo sapiens),1,17%,35 SFC,,,,,0,0,0%,0 SFC,,,,"IL-g Avg SFC [1, 4]: 35 SFC"
3521.0072 (EGVVHGVTTVAEKTK; listed as Homo sapiens),0,0%,0 SFC,0,0%,,0 SFC,1,0,0%,0 SFC,1,50%,93.3 SFC,"IFNg Avg SFC [2, 11]: 93.3 SFC"
3521.0073 (TTVAEKTKEQVTNVG; listed as Homo sapiens),0,0%,0 SFC,0,0%,,0 SFC,1,0,0%,0 SFC,0,0%,0 SFC,
3521.0075 (KQGVAEAPGKTKEGV; listed as Homo sapiens),1,13%,58 SFC,1,50%,147 SFC,147 SFC,1,3,38%,209 SFC,0,0%,0 SFC,"IL-g Avg SFC [1, 4]: 58 SFC; IFNg Avg SFC [2, 4]: 70 SFC"
